Assay results from the supplement of paper PMC10307832.

Tests used:
Assay in all cases: relative viability (nuclei count vs DMSO), 5 days (fraction); higher = more cells survive
[1] = compound: CC1=C(C(=O)N2C=CSC2=N1)CCN3CCC(=C(C4=CC=CC=C4)C5=CC=C(C=C5)F)CC3 + CCNC(=O)c1noc(-c2cc(C(C)C)c(O)cc2O)c1-c1ccc(CN2CCOCC2)cc1 [Luminespib] (partner 0.01 µM)
How it was run: (§1)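 Five library-drug doses in √10 steps were combined with a fixed anchor-drug dose, or a single drug was given alone, by pin tool to lung cancer cell lines in 1536-well plates the day after seeding. Nuclei were stained and counted after 5 days. Relative viability is the nuclei count in treated wells over that in vehicle wells, taken as the median of duplicate plates.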

[2] = compound: CC1=C(C(=O)N2C=CSC2=N1)CCN3CCC(=C(C4=CC=CC=C4)C5=CC=C(C=C5)F)CC3 + Cc1cc(Nc2cc(N3CCN(C)CC3)nc(Sc3ccc(NC(=O)C4CC4)cc3)n2)n[nH]1 [Tozasertib] (partner 0.1 µM)
How it was run: as §1

[3] = compound: CC1=C(C(=O)N2C=CSC2=N1)CCN3CCC(=C(C4=CC=CC=C4)C5=CC=C(C=C5)F)CC3 + Cc1nc(NC(=O)N2CCC[C@H]2C(N)=O)sc1-c1ccnc(C(C)(C)C(F)(F)F)c1 [Alpelisib] (partner 2 µM)
How it was run: as §1

[4] = compound: CC1=C(C(=O)N2C=CSC2=N1)CCN3CCC(=C(C4=CC=CC=C4)C5=CC=C(C=C5)F)CC3 + Cc1nc(Nc2ncc(C(=O)Nc3c(C)cccc3Cl)s2)cc(N2CCN(CCO)CC2)n1 [Dasatinib] (partner 0.075 µM)
How it was run: as §1

## NCI-H3122
[1]; first compound 0.08 µM
  relative viability: 0.0707
[1]; first compound 0.253 µM
  relative viability: 0.131
[1]; first compound 0.8 µM
  relative viability: 0.1
[1]; first compound 2.53 µM
  relative viability: 0.0895
[1]; first compound 8 µM
  relative viability: 0.0997
[2]; first compound 0.08 µM
  relative viability: 0.315
[2]; first compound 0.253 µM
  relative viability: 0.351
[2]; first compound 0.8 µM
  relative viability: 0.392
[2]; first compound 2.53 µM
  relative viability: 0.491
[2]; first compound 8 µM
  relative viability: 0.324
[3]; first compound 0.08 µM
  relative viability: 0.794
[3]; first compound 0.253 µM
  relative viability: 0.701
[3]; first compound 0.8 µM
  relative viability: 0.781
[3]; first compound 2.53 µM
  relative viability: 0.915
[3]; first compound 8 µM
  relative viability: 0.752
[4]; first compound 0.08 µM
  relative viability: 1.02
[4]; first compound 0.253 µM
  relative viability: 0.769
[4]; first compound 0.8 µM
  relative viability: 0.781
[4]; first compound 2.53 µM
  relative viability: 1.06
[4]; first compound 8 µM
  relative viability: 0.524

## PC-3 [JPC-3]
[1]; first compound 0.08 µM
  relative viability: 0.802
[1]; first compound 0.253 µM
  relative viability: 0.656
[1]; first compound 0.8 µM
  relative viability: 0.66
[1]; first compound 2.53 µM
  relative viability: 0.678
[1]; first compound 8 µM
  relative viability: 0.585
[2]; first compound 0.08 µM
  relative viability: 0.924
[2]; first compound 0.253 µM
  relative viability: 0.821
[2]; first compound 0.8 µM
  relative viability: 0.91
[2]; first compound 2.53 µM
  relative viability: 0.988
[2]; first compound 8 µM
  relative viability: 0.66
[3]; first compound 0.08 µM
  relative viability: 0.959
[3]; first compound 0.253 µM
  relative viability: 1.1
[3]; first compound 0.8 µM
  relative viability: 1.07
[3]; first compound 2.53 µM
  relative viability: 1.08
[3]; first compound 8 µM
  relative viability: 0.899
[4]; first compound 0.08 µM
  relative viability: 0.901
[4]; first compound 0.253 µM
  relative viability: 0.702
[4]; first compound 0.8 µM
  relative viability: 1.01
[4]; first compound 2.53 µM
  relative viability: 1.14
[4]; first compound 8 µM
  relative viability: 0.844

## PC-14
[1]; first compound 0.08 µM
  relative viability: 0.168
[1]; first compound 0.253 µM
  relative viability: 0.175
[1]; first compound 0.8 µM
  relative viability: 0.151
[1]; first compound 2.53 µM
  relative viability: 0.176
[1]; first compound 8 µM
  relative viability: 0.151
[2]; first compound 0.08 µM
  relative viability: 0.489
[2]; first compound 0.253 µM
  relative viability: 0.675
[2]; first compound 0.8 µM
  relative viability: 0.603
[2]; first compound 2.53 µM
  relative viability: 0.681
[2]; first compound 8 µM
  relative viability: 0.481
[3]; first compound 0.08 µM
  relative viability: 0.738
[3]; first compound 0.253 µM
  relative viability: 1.04
[3]; first compound 0.8 µM
  relative viability: 0.955
[3]; first compound 2.53 µM
  relative viability: 0.979
[3]; first compound 8 µM
  relative viability: 0.624
[4]; first compound 0.08 µM
  relative viability: 0.228
[4]; first compound 0.253 µM
  relative viability: 0.284
[4]; first compound 0.8 µM
  relative viability: 0.21
[4]; first compound 2.53 µM
  relative viability: 0.237
[4]; first compound 8 µM
  relative viability: 0.282

## RERF-LC-KJ
[1]; first compound 0.08 µM
  relative viability: 1.14
[1]; first compound 0.253 µM
  relative viability: 1.12
[1]; first compound 0.8 µM
  relative viability: 1.22
[1]; first compound 2.53 µM
  relative viability: 1.24
[1]; first compound 8 µM
  relative viability: 0.813
[2]; first compound 0.08 µM
  relative viability: 0.432
[2]; first compound 0.253 µM
  relative viability: 0.462
[2]; first compound 0.8 µM
  relative viability: 0.518
[2]; first compound 2.53 µM
  relative viability: 0.426
[2]; first compound 8 µM
  relative viability: 0.452
[3]; first compound 0.08 µM
  relative viability: 0.743
[3]; first compound 0.253 µM
  relative viability: 0.844
[3]; first compound 0.8 µM
  relative viability: 0.8
[3]; first compound 2.53 µM
  relative viability: 0.758
[3]; first compound 8 µM
  relative viability: 0.633
[4]; first compound 0.08 µM
  relative viability: 0.706
[4]; first compound 0.253 µM
  relative viability: 0.892
[4]; first compound 0.8 µM
  relative viability: 0.879
[4]; first compound 2.53 µM
  relative viability: 0.688
[4]; first compound 8 µM
  relative viability: 0.492

## SK-LU-1
[1]; first compound 0.08 µM
  relative viability: 0.228
[1]; first compound 0.253 µM
  relative viability: 0.217
[1]; first compound 0.8 µM
  relative viability: 0.192
[1]; first compound 2.53 µM
  relative viability: 0.21
[1]; first compound 8 µM
  relative viability: 0.184
[2]; first compound 0.08 µM
  relative viability: 0.307
[2]; first compound 0.253 µM
  relative viability: 0.286
[2]; first compound 0.8 µM
  relative viability: 0.288
[2]; first compound 2.53 µM
  relative viability: 0.283
[2]; first compound 8 µM
  relative viability: 0.295
[3]; first compound 0.08 µM
  relative viability: 1.24
[3]; first compound 0.253 µM
  relative viability: 0.925
[3]; first compound 0.8 µM
  relative viability: 1.13
[3]; first compound 2.53 µM
  relative viability: 1.33
[3]; first compound 8 µM
  relative viability: 0.826
[4]; first compound 0.08 µM
  relative viability: 0.196
[4]; first compound 0.253 µM
  relative viability: 0.172
[4]; first compound 0.8 µM
  relative viability: 0.19
[4]; first compound 2.53 µM
  relative viability: 0.18
[4]; first compound 8 µM
  relative viability: 0.178

## SK-MES-1
[1]; first compound 0.08 µM
  relative viability: 0.947
[1]; first compound 0.253 µM
  relative viability: 0.832
[1]; first compound 0.8 µM
  relative viability: 0.689
[1]; first compound 2.53 µM
  relative viability: 0.931
[1]; first compound 8 µM
  relative viability: 0.594
[2]; first compound 0.08 µM
  relative viability: 0.922
[2]; first compound 0.253 µM
  relative viability: 0.971
[2]; first compound 0.8 µM
  relative viability: 0.862
[2]; first compound 2.53 µM
  relative viability: 1.08
[2]; first compound 8 µM
  relative viability: 0.601
[3]; first compound 0.08 µM
  relative viability: 0.881
[3]; first compound 0.253 µM
  relative viability: 0.944
[3]; first compound 0.8 µM
  relative viability: 0.835
[3]; first compound 2.53 µM
  relative viability: 0.87
[3]; first compound 8 µM
  relative viability: 0.554
[4]; first compound 0.08 µM
  relative viability: 0.383
[4]; first compound 0.253 µM
  relative viability: 0.273
[4]; first compound 0.8 µM
  relative viability: 0.27
[4]; first compound 2.53 µM
  relative viability: 0.334
[4]; first compound 8 µM
  relative viability: 0.369

## SW 1573
[1]; first compound 0.08 µM
  relative viability: 0.155
[1]; first compound 0.253 µM
  relative viability: 0.189
[1]; first compound 0.8 µM
  relative viability: 0.215
[1]; first compound 2.53 µM
  relative viability: 0.245
[1]; first compound 8 µM
  relative viability: 0.227
[2]; first compound 0.253 µM
  relative viability: 0.211
[2]; first compound 0.8 µM
  relative viability: 0.157
[2]; first compound 2.53 µM
  relative viability: 0.203
[2]; first compound 8 µM
  relative viability: 0.21
[3]; first compound 0.08 µM
  relative viability: 0.829
[3]; first compound 0.253 µM
  relative viability: 0.829
[3]; first compound 0.8 µM
  relative viability: 0.739
[3]; first compound 2.53 µM
  relative viability: 0.657
[3]; first compound 8 µM
  relative viability: 0.469
[4]; first compound 0.253 µM
  relative viability: 0.586
[4]; first compound 0.8 µM
  relative viability: 0.537
[4]; first compound 2.53 µM
  relative viability: 0.512
[4]; first compound 8 µM
  relative viability: 0.225

## UMC-11
[1]; first compound 0.08 µM
  relative viability: 1.18
[1]; first compound 0.253 µM
  relative viability: 1.05
[1]; first compound 0.8 µM
  relative viability: 1.07
[1]; first compound 2.53 µM
  relative viability: 1.11
[1]; first compound 8 µM
  relative viability: 0.786
[2]; first compound 0.08 µM
  relative viability: 0.208
[2]; first compound 0.253 µM
  relative viability: 0.225
[2]; first compound 0.8 µM
  relative viability: 0.194
[2]; first compound 2.53 µM
  relative viability: 0.212
[2]; first compound 8 µM
  relative viability: 0.202
[3]; first compound 0.08 µM
  relative viability: 1.1
[3]; first compound 0.253 µM
  relative viability: 0.765
[3]; first compound 0.8 µM
  relative viability: 0.977
[3]; first compound 2.53 µM
  relative viability: 1.29
[3]; first compound 8 µM
  relative viability: 0.732
[4]; first compound 0.08 µM
  relative viability: 0.526
[4]; first compound 0.253 µM
  relative viability: 0.422
[4]; first compound 0.8 µM
  relative viability: 0.525
[4]; first compound 2.53 µM
  relative viability: 0.824
[4]; first compound 8 µM
  relative viability: 0.357
